Test results as given in US11813239B2, “Compositions and methods for improving cardiac structure and/or function” (Wisconsin Alumni Research Foundation, priority 2020, dated 2023).
“Also recorded” adds a separate entry of the source.

Experiments:
adult cardiomyocytes = assay: Histology after adult MI (TTC, TUNEL, pH3, Aurora B, BrdU, nucleation, γH2AX, trichrome, WGA, coronary casting, PECAM/α-SMA); type: in vivo, mouse
[1] = system: postnatal (P7) mouse heart following myocardial infarction; assay: Echocardiography after myocardial infarction in P7 juvenile mice; conditions: for % EF (Ejection Fraction) / % FS (Fractional Shortening) / LV Mass (Left Ventricular Mass, Anatomical Weight) / LV Vol; d (Left Ventricular Volume; diastole) / LV Vol; s (Left Ventricular Volume; systole) / LVAWD (Left Ventricle Anterior Wall Thickness Diastole) / LVAWS (Left Ventricle Anterior Wall Thickness Systole) / LVIDD (Left Ventricle Internal Diameter Diastole) / LVIDS (Left Ventricle Internal Diameter Systole) / LVPWD (Left Ventricle Posterior Wall Thickness Diastole) / LVPWS (Left Ventricle Posterior Wall Thickness Systole): dimethyl malonate 100 mg/kg daily for 2 weeks from birth, mean ± SE
Description: (§1) Neonatal mice at postnatal day 1 (P1) or day 7 (P7) were used for myocardial infarction (MI) surgery. Neonatal mice were subjected to MI surgeries as previously described. Briefly, neonates were anesthetized by hypothermia on ice. Lateral thoracotomy at the fourth intercostal space was performed by blunt dissection of the intercostal muscles after skin incision. A C-1 tapered needle attached to a 6-0 prolene suture (Ethicon Inc., Bridgewater, N.J.) was passed through the mid-ventricle below the left anterior descending coronary artery (LAD) and tied off to induce MI. The prolene suture was used to suture the ribs together and seal the chest wall incisions, and the skin was closed using adhesive glue (3M). The mice then were warmed on a heating pad until recovery. Sham-operated mice underwent the same procedure including hypothermic anesthesia, but not LAD ligation.
(§2) Neonatal mice were weighed and injected daily with either saline, 100 mg/kg dimethyl succinate (Sigma), 100 mg/kg dimethyl malonate (Sigma), or 100 μg/kg Atpenin A5 (Enzo Life Sciences). Dimethyl succinate and dimethyl malonate were dissolved in saline. Stock solution of Atpenin A5 at 0.1 mg/ml was initially prepared by dissolving in DMSO (Sigma) and then further diluted with saline before injection. Saline was used as a vehicle control for all experiments.
(§3) Transthoracic echocardiography was performed by using a Visual Sonics 770 ultrasonograph with a 25-MHz transducer (Visual Sonics, Toronto) as described previously^19. Mice were lightly anesthetized with 1% isoflurane and maintained on a heated platform. Two-dimensionally guided M-mode images from a parasternal long axis (PLAX) of the left ventricle (LV) were acquired at the tip of the papillary muscles. Wall thickness and chamber diameters were measured in both diastole and systole. Fractional shortening was calculated as (LVDd−LVDs)/LVDd×100, where LVDd is LV diameter in diastole and LVDs is LV diameter in systole. Ejection fraction was calculated as [(7.0/(2.4+LVDd)(LVDd)^3−(7.0/(2.4+LVDs)(LVDs)^3/(7.0/(2.4+LVDd)(LVDd)^3×100 and LV mass was calculated by using the formula [1.05×((Posterior Walldiastole+Anterior Walldiastole+LVDd)^3−(LVDd)^3)]. All parameters were measured over at least three consecutive cycles.
We injected dimethyl malonate (100 mg/kg, daily) in neonatal mice directly after birth for 2 weeks with an MI performed once the mice reached P7. We then analyzed the hearts following injury to determine whether malonate results in prolongation of the neonatal regenerative window (FIG. 10A).

cardiomyocytes = assay: Immunostaining (pH3, Aurora B), WGA and trichrome staining after MI in P7 mice; conditions: MI at P7, dimethyl malonate 100 mg/kg daily for 2 weeks from birth, 21 days post-MI
Excerpt: We then analyzed the hearts following injury to determine whether malonate results in prolongation of the neonatal regenerative window (FIG. 5A). To examine whether malonate stimulates cardiomyocyte proliferation, we performed MI in 7-day-old mice and analyzed their hearts at 7 days post-MI by immunostaining for markers of proliferation.
as §1, §2
Hearts were harvested and fixed in 4% paraformaldehyde (PFA) in PBS solution overnight at 4° C., processed for paraffin embedding, and sectioned in intervals. Masson's trichrome staining was performed according to the manufacture's protocol (Newcomer Supply, Middleton, WI). Scar size measurements were quantified from at least 3 sections of the heart from ligature to apex. ImageJ was used to quantify the fibrotic scar, and the average scar area for each heart was plotted.
We injected dimethyl malonate (100 mg/kg, daily) in neonatal mice directly after birth for 2 weeks with an MI performed once the mice reached P7.

[2] = system: adult mouse heart following myocardial infarction; assay: Trichrome staining after adult MI, malonate treatment starting 1-week post-MI; conditions: malonate for 4 weeks starting 1-week post-MI, 6 weeks post-MI
Excerpt: (§4) Adult male mice (8-week-old) were subjected to MI by ligation of the proximal aspect of the LAD coronary artery. In brief, mice were anaesthetized using 3% isoflurane, then mice were intubated with PE50 tubing and placed on a mouse ventilator at 120-130 breaths per minute with a stroke volume of 150 microliters and maintained on 2% isoflurane. A left lateral incision through the fourth intercostal space was made to expose the heart. After visualizing the left coronary artery, 7-0 suture was placed through the myocardium in the anterolateral wall and secured as previously describer^17,18. Coronary artery entrapment was confirmed by observing blanching of the distal circulation (ventricular apex). ECG was used to confirm MI by noting ST segment changes. The lungs were over inflated, and the ribs and muscle layers were closed by absorbable sutures. The skin is closed by additional suturing using 6-0 nylon. The mouse was recovered from the anesthesia and extubated.
Saline was used as a vehicle control for all experiments. […]
Hearts were harvested and fixed in 4% paraformaldehyde (PFA) in PBS solution overnight at 4° C., processed for paraffin embedding, and sectioned in intervals. […] Scar size measurements were quantified from at least 3 sections of the heart from ligature to apex. ImageJ was used to quantify the fibrotic scar, and the average scar area for each heart was plotted. […]

[3] = system: adult mouse heart following myocardial infarction; assay: Echocardiography after adult MI, malonate treatment starting 1-week post-MI
Excerpt: as §4
Saline was used as a vehicle control for all experiments. […] Adult mice were injected intraperitoneally daily with either saline or 100 mg/kg dimethyl malonate post-MI for 2 or 4 weeks.
as §3
To determine whether SDH inhibitors can promote a regenerative response following the establishment of infarction, we performed MI in 8-week-old mice and started malonate treatment at 1-week post-MI (FIG. 20A). […] Mice were then randomized and treated with saline or malonate for a period of 4 weeks, and hearts were harvested at 6 weeks post-MI (FIG. 20A).

[4] = dimethyl malonate 100 mg/kg daily for 2 weeks, 28 days post-MI
[5] = dimethyl malonate 100 mg/kg daily for 2 weeks, 28 days post-MI, vs controls
[6] = dimethyl malonate 100 mg/kg daily, 14 days post-MI
[7] = MI at P7 (n = 6), echo 21 days post-MI (P7D21)
[8] = sham at P7 (SH, n = 6), echo at day 21 (P7D21)
[9] = adult mice, MI, 2 WPMI, dimethyl malonate 100 mg/kg daily for 4 weeks starting 1 WPMI, mean ± SE

COC(=O)CC(=O)OC [Malonate, dimethyl malonate]
fibrosis (trichrome staining, quantification) (adult cardiomyocytes; dimethyl malonate 100 mg/kg daily for 2 weeks, 14 days post-MI, vs controls, difference was not significant): trend for reduction in fibrosis | capillary density and vascular smooth muscle cells in the infarct zone (PECAM, α-SMA) (adult cardiomyocytes; [4]): significant increase in capillary density and vascular smooth muscle cells | scar size (quantification of fibrosis) (adult cardiomyocytes; [4]): significant reduction of scar size | cardiomyocyte size (WGA staining) (adult cardiomyocytes; [5]): significant reduction in cardiomyocyte size | coronary artery formation / revascularization of the infarct zone (coronary casting) (adult cardiomyocytes; [5]): Re-vascularization in the infarcted zone was also induced; also recorded: remarkable formation of coronary arteries below the ligature site | heart weight to body weight ratios (adult cardiomyocytes; dimethyl malonate 100 mg/kg daily for 2 weeks, 28 days post-MI, vs saline): No significant differences | cardiac structure (trichrome staining) (adult cardiomyocytes; dimethyl malonate 100 mg/kg daily for 2 weeks, 28 days post-MI, vs saline controls): complete restoration of the myocardium with minimal fibrosis; also recorded: remarkable restoration of the myocardium with minimal fibrosis | number of apoptotic cardiomyocytes (TUNEL staining) (adult cardiomyocytes; dimethyl malonate 100 mg/kg daily, 3- or 7-days post-MI, vs saline): no difference in the number of apoptotic cardiomyocytes | BrdU incorporation in cardiomyocytes (adult cardiomyocytes; [6]): significant increase in 5-bromodeoxyuridine (BrdU) incorporation | number of binucleated cardiomyocytes (adult cardiomyocytes; [6]): significant decrease in the number of binucleated cardiomyocytes | number of mononucleated cardiomyocytes (adult cardiomyocytes; [6]): remarkable increase in the number of mononucleated cardiomyocytes | cardiomyocytes with γH2AX foci (DNA damage) (adult cardiomyocytes; dimethyl malonate 100 mg/kg daily, vs controls): significant decrease in the number of cardiomyocytes with γH2AX foci | non-viable myocardium, myocardial necrosis (TTC viability stain) (adult cardiomyocytes; dimethyl malonate 100 mg/kg from within an hour post-MI, daily, 3 days post-MI, vs saline): no significant difference | gross morphology of the heart (adult cardiomyocytes; dimethyl malonate 100 mg/kg intraperitoneally for two weeks, 28 days post-MI, vs controls): more muscularized ventricle | vascular density in the infarct zone (MICROFIL casting, ImageJ region of interest) (adult cardiomyocytes; malonate, 28 days post-MI, vs controls): significant increase in vascular density in the infarct zone | % EF (Ejection Fraction) [1, 7]: 69.751 ± 5.496% | % FS (Fractional Shortening) [1, 7]: 38.443 ± 4.043% | LV Mass (Left Ventricular Mass, Anatomical Weight) [1, 7]: 48.029 ± 9.293 mg | LV Vol; d (Left Ventricular Volume; diastole) [1, 7]: 24.289 ± 5.739 µL | LV Vol; s (Left Ventricular Volume; systole) [1, 7]: 8.741 ± 3.350 µL | LVAWD (Left Ventricle Anterior Wall Thickness Diastole) [1, 7]: 0.702 ± 0.029 mm | LVAWS (Left Ventricle Anterior Wall Thickness Systole) [1, 7]: 0.814 ± 0.023 mm | LVIDD (Left Ventricle Internal Diameter Diastole) [1, 7]: 2.490 ± 0.269 mm | LVIDS (Left Ventricle Internal Diameter Systole) [1, 7]: 1.578 ± 0.259 mm | LVPWD (Left Ventricle Posterior Wall Thickness Diastole) [1, 7]: 0.684 ± 0.037 mm | LVPWS (Left Ventricle Posterior Wall Thickness Systole) [1, 7]: 0.823 ± 0.022 mm | cardiac function by echocardiography (EF, FS, LVIDD, LVIDS) ([1]; MI at P7, dimethyl malonate 100 mg/kg daily for 2 weeks from birth, 21 days post-MI): restored to normal levels | % EF (Ejection Fraction) [1, 8]: 67.727 ± 3.762% | % FS (Fractional Shortening) [1, 8]: 37.135 ± 2.848% | LV Mass (Left Ventricular Mass, Anatomical Weight) [1, 8]: 62.439 ± 4.833 mg | LV Vol; d (Left Ventricular Volume; diastole) [1, 8]: 43.309 ± 5.883 µL | LV Vol; s (Left Ventricular Volume; systole) [1, 8]: 14.962 ± 3.612 µL | LVAWD (Left Ventricle Anterior Wall Thickness Diastole) [1, 8]: 0.650 ± 0.025 mm | LVAWS (Left Ventricle Anterior Wall Thickness Systole) [1, 8]: 0.820 ± 0.033 mm | LVIDD (Left Ventricle Internal Diameter Diastole) [1, 8]: 3.240 ± 0.185 mm | LVIDS (Left Ventricle Internal Diameter Systole) [1, 8]: 2.058 ± 0.204 mm | LVPWD (Left Ventricle Posterior Wall Thickness Diastole) [1, 8]: 0.643 ± 0.026 mm | LVPWS (Left Ventricle Posterior Wall Thickness Systole) [1, 8]: 0.818 ± 0.032 mm | cardiomyocyte cell size (wheat germ agglutinin staining) (cardiomyocytes): significant reduction in cardiomyocyte cell size | structural regeneration and fibrosis (trichrome staining) (cardiomyocytes; vs saline controls): complete heart regeneration | scar size (fibrosis quantification) [2]: significant reduction in scar size | cardiac function by echocardiography ([3]; adult MI, malonate for 4 weeks starting 1-week post-MI, 4-weeks and 6-weeks post-MI): significant increase in cardiac function | % EF (Ejection Fraction) [3, 9]: 34.537 ± 4.592% | % FS (Fractional Shortening) [3, 9]: 16.507 ± 2.337% | LV Mass (Left Ventricular Mass, Anatomical Weight) [3, 9]: 118.559 ± 20.724 mg | LV Vol; d (Left Ventricular Volume; diastole) [3, 9]: 97.776 ± 23.854 µL | LV Vol; s (Left Ventricular Volume; systole) [3, 9]: 69.099 ± 20.899 µL | LVAWD (Left Ventricle Anterior Wall Thickness Diastole) [3, 9]: 0.698 ± 0.021 mm | LVAWS (Left Ventricle Anterior Wall Thickness Systole) [3, 9]: 0.833 ± 0.016 mm | LVIDD (Left Ventricle Internal Diameter Diastole) [3, 9]: 4.458 ± 0.467 mm | LVIDS (Left Ventricle Internal Diameter Systole) [3, 9]: 3.772 ± 0.497 mm | LVPWD (Left Ventricle Posterior Wall Thickness Diastole) [3, 9]: 0.671 ± 0.023 mm | LVPWS (Left Ventricle Posterior Wall Thickness Systole) [3, 9]: 0.814 ± 0.012 mm | % EF (Ejection Fraction) ([3]; adult mice, MI, 3 WPMI, dimethyl malonate 100 mg/kg daily for 4 weeks starting 1 WPMI, mean ± SE): 38.518 ± 3.865%
